Laboratory results from ChEMBL document CHEMBL2074525, “Screening of multidrug-resistance sensitive drugs by in situ brain perfusion in P-glycoprotein-deficient mice” (Pharm Res, 2001).

Molecular target: ATP-dependent translocase ABCB1 (Mus musculus, UniProt P21447)
Assay: TP_TRANSPORTER: increase in blood-brain coefficient in mdr1a(-/-) mouse
Assay type: functional, organism-based
Details: in vivo

Chain of ATP-dependent translocase ABCB1 (P21447 whole entry): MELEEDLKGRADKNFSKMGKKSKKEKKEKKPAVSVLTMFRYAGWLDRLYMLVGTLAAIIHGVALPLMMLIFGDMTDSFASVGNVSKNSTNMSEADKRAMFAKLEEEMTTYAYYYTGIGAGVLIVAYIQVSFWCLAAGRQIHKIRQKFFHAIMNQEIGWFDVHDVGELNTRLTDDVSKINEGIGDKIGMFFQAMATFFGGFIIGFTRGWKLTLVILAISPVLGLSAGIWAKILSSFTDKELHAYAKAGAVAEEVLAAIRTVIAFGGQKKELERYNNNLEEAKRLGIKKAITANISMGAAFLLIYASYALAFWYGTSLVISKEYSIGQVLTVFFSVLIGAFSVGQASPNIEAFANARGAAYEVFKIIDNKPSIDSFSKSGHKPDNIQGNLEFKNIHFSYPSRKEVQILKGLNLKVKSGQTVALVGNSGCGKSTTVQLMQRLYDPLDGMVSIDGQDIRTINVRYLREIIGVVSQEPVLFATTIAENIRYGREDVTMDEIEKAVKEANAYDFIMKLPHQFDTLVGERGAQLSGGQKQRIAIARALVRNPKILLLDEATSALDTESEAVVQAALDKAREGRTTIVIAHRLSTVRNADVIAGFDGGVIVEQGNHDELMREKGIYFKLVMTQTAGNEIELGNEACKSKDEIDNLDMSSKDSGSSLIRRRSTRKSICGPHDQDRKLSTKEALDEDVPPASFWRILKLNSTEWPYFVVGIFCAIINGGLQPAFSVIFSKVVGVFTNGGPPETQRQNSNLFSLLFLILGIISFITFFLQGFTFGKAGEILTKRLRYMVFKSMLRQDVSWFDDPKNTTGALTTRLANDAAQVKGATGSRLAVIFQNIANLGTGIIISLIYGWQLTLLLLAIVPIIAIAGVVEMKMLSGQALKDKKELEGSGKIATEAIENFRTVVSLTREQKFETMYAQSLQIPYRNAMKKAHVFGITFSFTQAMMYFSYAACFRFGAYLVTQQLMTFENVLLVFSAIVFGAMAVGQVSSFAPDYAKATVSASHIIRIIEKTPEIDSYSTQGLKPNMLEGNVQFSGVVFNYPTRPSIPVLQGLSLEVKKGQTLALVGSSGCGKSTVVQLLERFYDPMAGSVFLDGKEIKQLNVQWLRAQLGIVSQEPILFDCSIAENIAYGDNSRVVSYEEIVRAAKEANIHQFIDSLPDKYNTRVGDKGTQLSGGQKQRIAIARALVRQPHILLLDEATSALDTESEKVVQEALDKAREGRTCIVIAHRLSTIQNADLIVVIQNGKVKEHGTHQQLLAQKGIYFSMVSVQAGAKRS

Activity: substrate [+]
Compound: COc1cccc2c1C(=O)c1c(O)c3c(c(O)c1C2=O)C[C@@](O)(C(=O)CO)C[C@@H]3O[C@H]1C[C@H](N)[C@H](O)[C@H](C)O1 [DOXORUBICIN]
